According to patent US20250066347A1, “SUBSTITUTED THIAZOLIDINEDIONE DERIVATIVE COMPOUND, AND PHARMACEUTICAL COMPOSITION FOR PREVENTING OR TREATING CANCER, COMPRISING SAME” (MEDIFIC, INC., priority 2021, published 2025):
“And” between values parts separate entries of the source, which are not always exact repeats. Equal values may be shown once. Read-outs that look alike come from different tables or passages of the source.

Legend:
[1] = In vivo PK test, drug concentration in plasma after oral or intravenous administration; conditions: mouse
Procedure: • Experimental Drug: Compound 11 • Excipient: 10% DMSO, 75% PEG400, 15% saline 1.2. Experimental system • mouse, CRljOri:CD1(ICR), SPF 6 weeks old (7 weeks old at the time of administration) 1.3. Administration route • oral administration (PO), intravenous administration (IV) 1.4. Administration method and number of administration
After obtaining the mouse, the mouse was acclimatized for 5 days, and used in the experiment. An administration dose was 25 mg/kg by oral administration and 5 mg/kg by intravenous administration. A dosage for each individual was calculated based on the weight after fasting (on the day of administration), and the drug was orally administered once to an oral administration (PO) group using a disposable syringe (1 mL) with a zonde for oral administration attached, and intravenously administered to the tail vein of an intravenous administration (IV) group using a disposable syringe (1 mL).
About 0.3 mL of blood was collected from a jugular vein with a 1 mL syringe (25G) treated with 3.8% sodium citrate (about 30˜40 μl), placed in one microtube (QSP, 1.5 mL), and centrifuged at 12,000 RPM/3 min to collect plasma. The plasma was frozen and stored at −80° C. until analysis, and all animals of a pharmacokinetic experiment group were euthanized after completing the blood collection.
580 μl of acetonitrile (including internal standard) was added to 20 μl of plasma/tissue, and centrifugation was performed at 4° C. at 15,000 rpm for 5 minutes with vortexing. A supernatant obtained after the centrifugation was analyzed with LC-MS/MS.
PK parameter was calculated as a non-compartmental analysis model, using a phoenix WinNonlin 6.4 version (Pharsight, USA) program.

HOG-GSC = experiment: Cell viability analysis depending on the concentration of Compound 11; type: cell-based; conditions: 0.078-20 μM, 72 hours
Procedure: HOG-GSC which is a brain tumor stem cell was seeded on a 96-well plate at 5000 cells/well, treated with Compound 11 (Example 11) at concentrations of 20 μM, 10 μM, 5 μM, 2.5 μM, 1.25 μM, 0.625 μM, 0.312 μM, 0.156 μM, and 0.078 μM repeatedly 3 times after 24 hours, and treated with the same volume of DMSO as a control group repeatedly 3 times. After the treatment, cells were cultured for 72 hours in an incubator (ThermoFisher) at 37° C., 5% Co2. Thereafter, since there were many living cells in each well, the cell viability depending on the concentration of Compound 11 (Example 11) was compared using a cell viability assay kit (LPS solution) of which the color becomes darker with an increase in the number of cells. Further, absorbance at 450 nm was measured using a microplate reader (BioTek), and absorbance at each concentration was normalized based on the absorbance intensity of the control group of 1 and is shown in FIG. 4.

HOG-GSC cells = experiment: Comparison of cell viability in brain tumor stem cell (MTS assay); type: cell-based; conditions: 72 hours, DMSO control = 1, value below 0.5 = viability decreased by 50% or more
Procedure: HOG-GSC cells which are brain tumor stem cells were treated with 11 compounds at 10 μM and DMSO as a control group, and the number of surviving cells after 72 hours was evaluated by MTS assay.
HOG-GSC which is a brain tumor stem cell was seeded on a 96-well plate at 5000 cells per well, and was cultured in an incubator (ThermoFisher) at 37° C. and 5% CO2 for 24 hours for stabilization of cells. Thereafter, it was treated with 11 compounds of the present invention at […] each, and treated with the same volume of DMSO as a control group as the volume of each compound. After treatment with the compound of the present invention and the control group, cells were cultured in an incubator at 37° C. and 5% CO2 for 72 hours. Thereafter, since there were many living cells in each well, cell viability was quantified using a cell viability assay kit (LPS solution) of which the color becomes darker with an increase in the number of cells. After treatment with the cell viability assay solution, a reaction was performed in an incubator at 37° C. and 5% CO2 for 3 hours to perform coloration, absorbance at 450 nm was measured using a microplate reader (BioTek), and an absorbance intensity of the control group was set to 1 and the absorbance of cells treated with each compound was normalized and is shown in FIG. 2.

[2] = CRljOri:CD1(ICR), 25 mg/kg oral administration, plasma

CC(C)(C)c1ccc(-c2cc(/C=C3\SC(=O)NC3=O)ccn2)cc1 [Compound 11, (Z)-5-((2-(4-(tert-butyl)phenyl)pyridin-4-yl)methylene)thiazolidine-2,4-dione]
concentration at 0.08 h ([1]; CRljOri:CD1(ICR), plasma, iv, 5 mg/kg, intravenous 5 mg/kg, 0.08 hr, read-out: Drug concentration in plasma, Average): 2560 ng/mL
concentration at 0.08 h ([1]; CRljOri:CD1(ICR), plasma, iv, 5 mg/kg, intravenous 5 mg/kg, 0.08 hr, read-out: Drug concentration in plasma, Individual): 2820 ng/mL
concentration at 0.25 h ([1]; CRljOri:CD1(ICR), plasma, iv, 5 mg/kg, intravenous 5 mg/kg, 0.25 hr, read-out: Drug concentration in plasma, Average): 2540 ng/mL
concentration at 0.25 h ([1]; CRljOri:CD1(ICR), plasma, iv, 5 mg/kg, intravenous 5 mg/kg, 0.25 hr, read-out: Drug concentration in plasma, Individual): 2600 ng/mL
concentration at 0.5 h ([1]; CRljOri:CD1(ICR), plasma, iv, 5 mg/kg, intravenous 5 mg/kg, 0.5 hr, read-out: Drug concentration in plasma, Average): 2260 ng/mL
concentration at 0.5 h ([1]; CRljOri:CD1(ICR), plasma, iv, 5 mg/kg, intravenous 5 mg/kg, 0.5 hr, read-out: Drug concentration in plasma, Individual): 2790 ng/mL
concentration at 1 h ([1]; CRljOri:CD1(ICR), plasma, iv, 5 mg/kg, intravenous 5 mg/kg, 1 hr, read-out: Drug concentration in plasma, Average): 2100 ng/mL
concentration at 1 h ([1]; CRljOri:CD1(ICR), plasma, iv, 5 mg/kg, intravenous 5 mg/kg, 1 hr, read-out: Drug concentration in plasma, Individual): 2590 ng/mL
concentration at 2 hr ([1]; CRljOri:CD1(ICR), plasma, iv, 5 mg/kg, intravenous 5 mg/kg, 2 hr, read-out: Drug concentration in plasma, Average): 1570 ng/mL
concentration at 2 hr ([1]; CRljOri:CD1(ICR), plasma, iv, 5 mg/kg, intravenous 5 mg/kg, 2 hr, read-out: Drug concentration in plasma, Individual): 1130 ng/mL
concentration at 4 h ([1]; CRljOri:CD1(ICR), plasma, iv, 5 mg/kg, intravenous 5 mg/kg, 4 hr, read-out: Drug concentration in plasma, Average): 1280 ng/mL
concentration at 4 h ([1]; CRljOri:CD1(ICR), plasma, iv, 5 mg/kg, intravenous 5 mg/kg, 4 hr, read-out: Drug concentration in plasma, Individual): 1050 ng/mL
concentration at 6 h ([1]; CRljOri:CD1(ICR), plasma, iv, 5 mg/kg, intravenous 5 mg/kg, 6 hr): 652 ng/mL
concentration at 8 h ([1]; CRljOri:CD1(ICR), plasma, iv, 5 mg/kg, intravenous 5 mg/kg, 8 hr, read-out: Drug concentration in plasma, Average): 575 ng/mL
concentration at 8 h ([1]; CRljOri:CD1(ICR), plasma, iv, 5 mg/kg, intravenous 5 mg/kg, 8 hr, read-out: Drug concentration in plasma, Individual): 424 ng/mL
concentration at 24 h ([1]; CRljOri:CD1(ICR), plasma, iv, 5 mg/kg, intravenous 5 mg/kg, 24 hr, BQL = <1 ng/ml, ND = not detectable, read-out: Drug concentration in plasma, Individual): 1.9 ng/mL
concentration at 24 h ([1]; CRljOri:CD1(ICR), plasma, iv, 5 mg/kg, intravenous 5 mg/kg, 24 hr, read-out: Drug concentration in plasma, Average): 1.8 ng/mL
concentration at 0.25 h ([1]; CRljOri:CD1(ICR), plasma, po, 25 mg/kg, oral 25 mg/kg, 0.25 hr, read-out: Drug concentration in plasma, Average): 2910 ng/mL
concentration at 0.5 h ([1]; CRljOri:CD1(ICR), plasma, po, 25 mg/kg, oral 25 mg/kg, 0.5 hr, read-out: Drug concentration in plasma, Average): 4420 ng/mL
concentration at 1 h ([1]; CRljOri:CD1(ICR), plasma, po, 25 mg/kg, oral 25 mg/kg, 1 hr, read-out: Drug concentration in plasma, Average): 3770 ng/mL
concentration at 2 h ([1]; CRljOri:CD1(ICR), plasma, po, 25 mg/kg, oral 25 mg/kg, 2 hr): 3870 ng/mL
concentration at 4 h ([1]; CRljOri:CD1(ICR), plasma, po, 25 mg/kg, oral 25 mg/kg, 4 hr, read-out: Drug concentration in plasma, Average): 3540 ng/mL
concentration at 6 h ([1]; CRljOri:CD1(ICR), plasma, po, 25 mg/kg, oral 25 mg/kg, 6 hr): 5440 ng/mL
concentration at 8 h ([1]; CRljOri:CD1(ICR), plasma, po, 25 mg/kg, oral 25 mg/kg, 8 hr, read-out: Drug concentration in plasma, Average): 5020 ng/mL
concentration at 8 h ([1]; CRljOri:CD1(ICR), plasma, po, 25 mg/kg, oral 25 mg/kg, 8 hr, read-out: Drug concentration in plasma, Individual): 3930 ng/mL
concentration at 24 h ([1]; CRljOri:CD1(ICR), plasma, po, 25 mg/kg, oral 25 mg/kg, 24 hr, BQL = <1 ng/ml, read-out: Drug concentration in plasma, Individual): 4.1 ng/mL
concentration at 24 h ([1]; CRljOri:CD1(ICR), plasma, po, 25 mg/kg, oral 25 mg/kg, 24 hr, read-out: Drug concentration in plasma, Average): 3.6 ng/mL
bioavailability ([1]; CRljOri:CD1(ICR), plasma, 25 mg/kg oral compared with 5 mg/kg intravenous, read-out: bioavailability (BA)): 62.4%
AUC(0-t) [1, 2]: 39400 ng·h/mL
Cmax [1, 2]: 5040 ng/mL
Tmax [1, 2]: 1.6 h
half-life [1, 2]: 3.9 h
Drug concentration in plasma, Individual ([1]; intravenous 5 mg/kg, 0.08 hr, 5 mg/kg): 2800.0 ng/mL and 1900.0 ng/mL and 2700.0 ng/mL
Drug concentration in plasma, Individual ([1]; intravenous 5 mg/kg, 0.25 hr, 5 mg/kg): 2240.0 ng/mL and 2890.0 ng/mL and 2430.0 ng/mL
Drug concentration in plasma, Individual ([1]; intravenous 5 mg/kg, 0.5 hr, 5 mg/kg): 1890.0 ng/mL and 2360.0 ng/mL and 2000.0 ng/mL
Drug concentration in plasma, Individual ([1]; intravenous 5 mg/kg, 1 hr, 5 mg/kg): 1780.0 ng/mL and 2380.0 ng/mL and 1630.0 ng/mL
Drug concentration in plasma, Individual ([1]; intravenous 5 mg/kg, 2 hr, 5 mg/kg): 1420.0 ng/mL and 2240.0 ng/mL and 1480.0 ng/mL
Drug concentration in plasma, Individual ([1]; intravenous 5 mg/kg, 4 hr, 5 mg/kg): 1410.0 ng/mL and 1400.0 ng/mL and 1260.0 ng/mL
Drug concentration in plasma, Individual ([1]; intravenous 5 mg/kg, 6 hr, 5 mg/kg): 476.0 ng/mL and 491.0 ng/mL and 1080.0 ng/mL and 561.0 ng/mL
Drug concentration in plasma, Individual ([1]; intravenous 5 mg/kg, 8 hr, 5 mg/kg): 614.0 ng/mL and 618.0 ng/mL and 644.0 ng/mL
Drug concentration in plasma, Individual ([1]; intravenous 5 mg/kg, 24 hr, BQL = <1 ng/ml, ND = not detectable, 5 mg/kg): 1.7 ng/ml and BQL
Drug concentration in plasma, Individual ([1]; oral 25 mg/kg, 0.25 hr, 25 mg/kg): 3210.0 ng/mL and 2230.0 ng/mL and 4300.0 ng/mL and 2000.0 ng/mL
Drug concentration in plasma, Individual ([1]; oral 25 mg/kg, 0.5 hr, 25 mg/kg): 3590.0 ng/mL and 2340.0 ng/mL and 4750.0 ng/mL and 7010.0 ng/mL
Drug concentration in plasma, Individual ([1]; oral 25 mg/kg, 1 hr, 25 mg/kg): 4140.0 ng/mL and 2380.0 ng/mL and 2070.0 ng/mL and 6490.0 ng/mL
Drug concentration in plasma, Individual ([1]; oral 25 mg/kg, 2 hr, 25 mg/kg): 3270.0 ng/mL and 2030.0 ng/mL and 4100.0 ng/mL and 6070.0 ng/mL
Drug concentration in plasma, Individual ([1]; oral 25 mg/kg, 4 hr, 25 mg/kg): 2020.0 ng/mL and 4420.0 ng/mL and 2930.0 ng/mL and 4810.0 ng/mL
Drug concentration in plasma, Individual ([1]; oral 25 mg/kg, 6 hr, 25 mg/kg): 7260.0 ng/mL and 8180.0 ng/mL and 2630.0 ng/mL and 3680.0 ng/mL
Drug concentration in plasma, Individual ([1]; oral 25 mg/kg, 8 hr, 25 mg/kg): 4120.0 ng/mL and 4850.0 ng/mL and 7180.0 ng/mL
Drug concentration in plasma, Individual ([1]; oral 25 mg/kg, 24 hr, BQL = <1 ng/ml, 25 mg/kg): BQL and 2.5 ng/ml and 4.1 ng/ml
cell viability of HOG-GSC compared with DMSO control (HOG-GSC): significantly decreased
concentration dependence of HOG-GSC cell viability (HOG-GSC): decreased in proportion to the concentration
cell viability inhibition effect (normalized MTS value) (HOG-GSC cells): significant cell viability inhibition effect
